One experiment has as its system MOLM-13 (FLT3-ITD/wt). The experiment in a line: Cell proliferation assay (CellTiter-Glo). The format is cell-based, human. How it is done: (§1) The human AML cell lines MV4-11, U937, OCI-AML-3 were purchased from the American Type Culture Collection (ATCC) (Manassas, VA, USA). The FLT3-ITD-expressing lines, MOLM-13, MOLM-14, were provided by Dr. Scott Armstrong, Dana Farber Cancer Institute (DFCI), Boston, MA. The wt FLT3-expressing AML line, NB4 (KRAS A18D), was obtained from Dr. Gary Gilliland. […] MV4-11 was cultured in IDMEM media (Corning, USA) with 10% FBS and supplemented with 2% L-glutamine and 1% penicillin/streptomycin. OCI-AML-3 was cultured in α-MEM media (Corning, USA) with 10% FBS and supplemented with 2% L-glutamine and 1% penicillin/streptomycin. All cell lines were maintained in culture media at 37°C with 5% CO2.
(§2) Cells were grown in 96-well culture plates (3000/well). […] Cell proliferation was determined after 72 hours drug treatment. […] Cell viability was measured with the CellTiter–Glo assay (Promega, USA), according to the manufacturer's instructions, and luminescence was measured in a multi-label reader (Envision, PerkinElmer, USA). […] GI50 values were calculated using Prism 5.0 (GraphPad Software, San Diego, CA).

Another experiment concerns MOLM-14 (FLT3-ITD/wt). The experiment in a line: Cell proliferation assay (CellTiter-Glo). The format is cell-based, human. How it is done:
as §1, §2
In general terms: Cellular ATP, detected with luciferase, serves as a proxy for viable cell number.

The next experiment has as its system MV4-11 (FLT3-ITD). The experiment in a line: Cell proliferation assay (CellTiter-Glo). In kind it is cell-based, human. The method, then: as §1, §2
A further experiment concerns NB4 (FLT3-wt). Nature of the experiment: Cell proliferation assay (CellTiter-Glo). In kind it is cell-based, human. Particulars: 72 hours. How it is done:
as §1, §2

The subject of another experiment is OCI-AML-3 (FLT3-wt). The experiment in a line: Cell proliferation assay (CellTiter-Glo). The format is cell-based, human. To be noted: 72 hours. The method, then:
as §1, §2

The subject of a further experiment is U937 (FLT3-wt). The experiment in a line: Cell proliferation assay (CellTiter-Glo). To be noted: 72 hours. In kind it is cell-based, human. The method, then: as §1, §2
The target in experiment [1] is FLT3-ITD (ITD+kinase domain). The experiment in a line: ADP-Glo biochemical assay. To be noted: ATP final 50 μM. The method, then: FLT3 wt/FLT3-ITD/FLT3-D835Y cytoplasmic fragment with his tag was cloned into baculovirus expression vector pFASTHT-A. The recombinant bacmid was transfected into SF9 by Cellfectin (Invitrogen). High titer viral stocks were obtained by two rounds of amplification of the virus. The protein was expressed by infecting SF9 cells with high titer viral stocks for 48 h. Cells were harvested and re-suspended in lysis buffer (50 mM Tris pH 7.5, 150 mM NaCl, and 1 mM PMSF). The cells were lysed by ultra sonication and the cell debris was removed by ultracentrifugation. The supernatant was incubated with Ni-affinity beads (GE). The beads were then washed by lysis buffer containing 50–250 mM imidazole. The elute was loaded to superdex 75. The protein was concentrated to 1 mg/ml and aliquots were frozen and stored at −80°C. The protein was used for ADP-Glo™ kinase assay.
The reaction in each tube was started immediately by adding ATP and kept going for an hour under 37°C. After the tube cooled for 5 minutes at room temperature, 5 μL solvent reactions were carried out in a 384-well plate. […] At the end, 10 μL of kinase detection reagent was added into the well and incubated for 30 minutes to produce a luminescence signal. Luminescence signal was measured with an automated plate reader (Perkin-Elmer Envision) and each measurement was performed in triplicate.
A general note: ADP-Glo first removes unused ATP, then detects ADP through luciferase.

As usually defined, the GI50 is the concentration giving 50% growth inhibition. By IC50 is commonly meant the concentration that inhibits the measured activity by half. A low value points to greater potency.

For `Cc1[nH]nc2ccc(-c3cncc(OC[C@@H](N)Cc4ccccc4)c3)cc12` [A674563], the GI50 with MOLM-13 (FLT3-ITD/wt) (MOLM-13 (FLT3-ITD/wt), 72 hours, Table 1) is 60 nM; with MOLM-13 (FLT3-ITD/wt) (MOLM-13+FL(1 ng/mL)), 61 nM; in the experiment with MOLM-13 (FLT3-ITD/wt) (MOLM-13+FL(5 ng/mL)) it was 58 nM; with MOLM-13 (FLT3-ITD/wt) (MOLM-13+FL(10 ng/mL)), 59 nM; in the experiment on MOLM-13 (FLT3-ITD/wt) (MOLM-13, no FLT3 ligand, Table 3), 60 nM; in the experiment on MOLM-14 (FLT3-ITD/wt) (MOLM-14 (FLT3-ITD/wt), 72 hours, Table 1), 180 nM. The 50% growth inhibitory concentration (GI50) came out at 210 nM with MOLM-14 (FLT3-ITD/wt) (MOLM-14+FL(1 ng/mL)); 190 nM in the experiment on MOLM-14 (FLT3-ITD/wt) (MOLM-14+FL(5 ng/mL)); 180 nM in the experiment on MOLM-14 (FLT3-ITD/wt) (MOLM-14+FL(10 ng/mL)); 180 nM in the experiment with MOLM-14 (FLT3-ITD/wt) (MOLM-14, no FLT3 ligand, Table 3); 75 nM in the experiment with MV4-11 (FLT3-ITD) (MV4-11 (FLT3-ITD), 72 hours, Table 1); 78 nM with MV4-11 (FLT3-ITD) (MV4-11+FL(10 ng/mL)). The GI50 in the experiment with MV4-11 (FLT3-ITD) (MV4-11, no FLT3 ligand, Table 3) was 75 nM; in the experiment with NB4 (FLT3-wt) it was 480 nM; in the experiment on OCI-AML-3 (FLT3-wt), 670 nM; with U937 (FLT3-wt), 520 nM. The molecule also yielded an IC50 in experiment [1] of 134 nM.

(Values after PMC5045383 (Oncotarget, 2016).)
